Measured values published in patent US9656990B2, “Cathepsin cysteine protease inhibitors” (Merck Sharp & Dohme Corp., priority 2014, dated 2017).

Legend:
human cathepsin K = human cathepsin K (UniProt P43236, Y175D/V274L, species not given); test: Cathepsin K Assay; assay type: biochemical; conditions: IP from dose response curve; Z-Leu-Arg-AMC substrate, pH 5.5; read-out: hrbCat K (IP (nM))
human cathepsin F = target: T1, human cathepsin F (Homo sapiens, UniProt Q9UBX1); test: Cathepsin F Assay; assay type: biochemical; conditions: IP from dose response curve; Z-Phe-Arg-AMC substrate, pH 5.5; read-out: hCat F (IP (nM))
T1 sequence (Q9UBX1 271-484): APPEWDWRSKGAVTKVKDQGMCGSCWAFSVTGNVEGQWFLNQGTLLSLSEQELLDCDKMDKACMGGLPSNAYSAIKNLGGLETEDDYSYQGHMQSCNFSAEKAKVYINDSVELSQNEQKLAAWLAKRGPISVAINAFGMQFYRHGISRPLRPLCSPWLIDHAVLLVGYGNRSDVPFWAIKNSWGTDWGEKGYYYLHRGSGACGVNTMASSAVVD
Method: Serial dilutions (1/3) from 500 μM down to 0.025 μM of test compounds were prepared in dimethyl sulfoxide (DMSO). Then 0.5 μL of DMSO from each dilution were added to 18.75 μL of assay buffer (MES, 50 mM (pH 5.5); EDTA, 2.5 mM; DTT, 2.5 mM and 10% DMSO) containing human cathepsin F (10 nM) in assay buffer solution. The assay solutions were mixed for 5-10 seconds on a shaker plate and incubated for 15 minutes at room temperature. Z-Phe-Arg-AMC (8 μM) in 6.25 μL of assay buffer was added to the assay solutions. Hydrolysis of the coumarin leaving group (AMC) was followed by spectrofluorometry (Exλ=360 nm; Emλ=460 nm) for 20 minutes. Percent of inhibition were calculated by fitting experimental values to standard mathematical model for dose response curve.

| SMILES | IC50 (human cathepsin K) [nM] | IC50 (human cathepsin F) [nM] |
| --- | --- | --- |
| N#CC1CCN(c2ccc(-c3cn(-c4ccc(F)cc4)nc3[C@@H]3CCCC[C@H]3C(=O)NC3(C#N)CC3)cc2)CC1 [Example 1, (1R,2R)—N-(1-Cyanocyclopropyl)-2-(4-(4-(4-cyanopiperidin-1-yl)phenyl)-1-(4-fluorophenyl)-1H-pyrazol-3-yl)cyclohexanecarboxamide] | 2.72 | 698 |
| N#CC1(NC(=O)[C@@H]2CCCC[C@H]2c2nn(-c3ccc(F)cc3)cc2-c2ccc(N3CCS(=O)(=O)CC3)cc2)CC1 [Example 85, (1R,2R)-N-(1-cyanocyclopropyl)-2-(4-(4-(1,1-dioxidothiomorpholino)phen-yl)-1-(4-fluorophenyl)-1H-pyrazol-3-yl)cyclohexanecarboxamide] | 0.69 | 352 |
| Cc1c(-c2ccc(N3CCS(=O)(=O)CC3)cc2)c([C@@H]2CCC(F)(F)C[C@H]2C(=O)NC2(C#N)CC2)nn1-c1ccc(F)cc1 [Example 26, (1R,2R)-N-(1-cyanocyclopropyl)-2-(4-(4-(1,1-dioxidothiomorpholino)phen-yl)-1-(4-fluorophenyl)-5-methyl-1H-pyrazol-3-yl)-5,5-difluorocyclohexanecarbox-amide] | 0.67 | 168 |
| C[C@@H](C#N)NC(=O)[C@@H]1CC(F)(F)CC[C@H]1c1nn2ccccc2c1-c1ccc(N2CCS(=O)(=O)CC2)cc1 [Example 72, (1R,2R)-N-((S)-1-cyanoethyl)-2-(3-(4-(1,1-dioxidothiomorpholino)phen-yl)pyrazolo[1,5-a]pyridin-2-yl)-5,5-difluorocyclohexanecarbox-amide] | 2.66 | 230 |
| N#CC1(NC(=O)[C@@H]2CCCC[C@H]2c2nn(-c3ccc(F)cc3)cc2-c2ccc(N3CCS(=O)(=NCC(F)(F)F)CC3)cc2)CC1 [Example 141, (1R,2R)-N-(1-cyanocyclopropyl)-2-(1-(4-fluorophenyl)-4-(4-(1-oxido-1-((2,2,2-trifluoroethyl)imino)thio-morpholino)phenyl)-1H-pyrazol-3-yl)cyclohexanecarboxamide] | 2.1 | 816 |
| N#CC1(NC(=O)[C@@H]2CCCC[C@H]2c2nn(-c3ccc(C(O)C(F)(F)F)cc3)cc2-c2ccc(N3CCS(=O)(=O)CC3)cc2)CC1 (mixture of isomers) [Example 113, (1R,2R)-N-(1-cyanocyclopropyl)-2-(4-(4-(1,1-dioxidothiomorpholino)phen-yl)-1-(4-((S and R)-2,2,2-trifluoro-1-hydroxyethyl)phenyl)-1H-pyrazol-3-yl)cyclohexanecarboxamide] | 0.88 | 360 |
| Cc1c(-c2ccc(N3CCS(=O)(=O)CC3)cc2)c([C@@H]2CCCC[C@H]2C(=O)NC2(C#N)CC2)nn1-c1ncccc1F [Example 41, (1R,2R)-N-(1-cyanocyclopropyl)-2-(4-(4-(1,1-dioxidothiomorpholino)phen-yl)-1-(3-fluoropyridin-2-yl)-5-methyl-1H-pyrazol-3-yl)cyclohexanecarboxamide] | 8.5 | 5390 |
| N#CC1(NC(=O)[C@@H]2CCCC[C@H]2c2nn(-c3ccc(-n4cccn4)cc3)cc2-c2ccc(N3CCS(=O)(=O)CC3)cc2)CC1 [Example 123, (1R,2R)-2-(1-(4-(1H-pyrazol-1-yl)phenyl)-4-(4-(1,1-dioxidothiomorpholino)phen-yl)-1H-pyrazol-3-yl)-N-(1-cyanocyclopropyl)cyclohex-anecarboxamide] | 0.96 | 593 |
| N#CC1(NC(=O)[C@@H]2CCCC[C@H]2c2nn(-c3ccccn3)cc2-c2ccc(N3CCS(=O)(=O)CC3)cc2)CC1 [Example 142, (1R,2R)-N-(1-cyanocyclopropyl)-2-(4-(4-(1,1-dioxidothiomorpholino)phen-yl)-1-(pyridin-2-yl)-1H-pyrazol-3-yl)cyclohexanecarboxamide] | 0.52 | 232 |
| N#CC1(NC(=O)[C@@H]2CC(F)(F)CC[C@H]2c2nn(-c3ccc(F)cn3)c(CF)c2-c2ccc(N3CCS(=O)(=O)CC3)cc2)CC1 [Example 62, (1R,2R)-N-(1-cyanocyclopropyl)-2-(4-(4-(1,1-dioxidothiomorpholino)phen-yl)-5-(fluoromethyl)-1-(5-fluoropyridin-2-yl)-1H-pyrazol-3-yl)-5,5-difluorocyclohexanecarbox-amide] | 1.33 | 151 |
| CS(=O)(=O)c1ccc(-c2cn(-c3ccc4ccccc4c3)nc2C2CCC(F)(F)CC2C(=O)NCC#N)cc1 (racemic) [Example 78, (1R,2R and 1S,2S)-N-(cyanomethyl)-5,5-difluoro-2-(4-(4-(methylsulfonyl)phenyl)-1-(naphthalen-2-yl)-1H-pyrazol-3-yl)cyclohexanecarboxamide] | 2.12 | 4 |
| N#CC1(NC(=O)[C@@H]2CCCC[C@H]2c2nn(-c3ccc(Cl)cc3)cc2-c2ccc(N3CCS(=O)(=O)CC3)cc2)CC1 [Example 95, (1R,2R)-2-(1-(4-chlorophenyl)-4-(4-(1,1-dioxidothiomorpholino)phen-yl)-1H-pyrazol-3-yl)-N-(1-cyanocyclopropyl)cyclohex-anecarboxamide] | 0.73 | 402 |
| CS(=O)(=O)c1ccc(-c2cn(-c3ccc(F)cc3)nc2C2CCC(F)(F)CC2C(=O)NCC#N)cc1 (racemic) [Example 77, (1R,2R and 1S,2S)-N-(cyanomethyl)-5,5-difluoro-2-(1-(4-fluorophenyl)-4-(4-(methylsulfonyl)phenyl)-1H-pyrazol-3-yl)cyclohexanecarboxamide] | 1.24 | 9 |
| N#CC1(NC(=O)[C@@H]2CCCC[C@H]2c2nn(-c3ncccc3F)cc2-c2ccc(N3CCS(=O)(=O)CC3)cc2)CC1 [Example 144, (1R,2R)-N-(1-cyanocyclopropyl)-2-(4-(4-(1,1-dioxidothiomorpholino)phen-yl)-1-(3-fluoropyridin-2-yl)-1H-pyrazol-3-yl)cyclohexanecarboxamide] | 5.59 | 3060 |
| N#CC1(NC(=O)[C@@H]2CCCC[C@H]2c2nn(-c3ccccc3OC(F)(F)F)cc2-c2ccc(N3CCS(=O)(=O)CC3)cc2)CC1 [Example 125, (1R,2R)-N-(1-cyanocyclopropyl)-2-(4-(4-(1,1-dioxidothiomorpholino)phen-yl)-1-(2-(trifluoromethoxy)phenyl)-1H-pyrazol-3-yl)cyclohexanecarboxamide] | 2.18 | 836 |
| Cc1ccc(-n2cc(-c3ccc(N4CCS(=O)(=O)CC4)cc3)c([C@@H]3CCCC[C@H]3C(=O)NC3(C#N)CC3)n2)cn1 [Example 167, (1R,2R)-N-(1-cyanocyclopropyl)-2-(4-(4-(1,1-dioxidothiomorpholino)phen-yl)-1-(6-methylpyridin-3-yl)-1H-pyrazol-3-yl)cyclohexanecarboxamide] | 0.66 | 602 |
| N#CC1(NC(=O)[C@@H]2CCCC[C@H]2c2nn(-c3ccc(F)cc3F)cc2-c2ccc(N3CCS(=O)(=O)CC3)cc2)CC1 [Example 131, (1R,2R)-N-(1-cyanocyclopropyl)-2-(1-(2,4-difluorophenyl)-4-(4-(1,1-dioxidothiomorpholino)phen-yl)-1H-pyrazol-3-yl)cyclohexanecarboxamide] | 2.49 | 1540 |
| N#CC1(NC(=O)[C@@H]2CC(F)(F)CC[C@H]2c2nn3ccccc3c2-c2ccc(C(=O)N3CCOCC3)cc2)CC1 [Example 13, (1R,2R)—N-(1-cyanocyclopropyl)-5,5-difluoro-2-(3-(4-(morpholine-4-carbonyl)phenyl)pyrazolo[1,5-a]pyridin-2-yl)cyclohexanecarboxamide] | 4.84 | 339 |
| C[C@@H](C#N)NC(=O)[C@@H]1CCCC[C@H]1c1nn(-c2ccc(F)cc2)c(CO)c1-c1ccc(N2CCS(=O)(=O)CC2)cc1 [Example 64, (1R,2R)-N-((S)-1-cyanoethyl)-2-(4-(4-(1,1-dioxidothiomorpholino)phen-yl)-1-(4-fluorophenyl)-5-(hydroxymethyl)-1H-pyrazol-3-yl)cyclohexanecarboxamide] | 4.61 | 565 |
| Cc1c(-c2ccc(N3CCS(=O)(=O)CC3)cc2)c([C@@H]2CCC(F)(F)C[C@H]2C(=O)NC2(C#N)CC2)nn1-c1ccc(F)cn1 [Example 27, (1R,2R)-N-(1-cyanocyclopropyl)-2-(4-(4-(1,1-dioxidothiomorpholino)phen-yl)-1-(5-fluoropyridin-2-yl)-5-methyl-1H-pyrazol-3-yl)-5,5-difluorocyclohexanecarbox-amide] | 1.28 | 170 |
| CC(C)N=S1(=O)CCN(c2ccc(-c3cn(-c4ccc(F)cc4)nc3[C@@H]3CCCC[C@H]3C(=O)NC3(C#N)CC3)cc2)CC1 [Example 140, (1R,2R)-N-(1-cyanocyclopropyl)-2-(1-(4-fluorophenyl)-4-(4-(1-(isopropylimino)-1-oxidothiomorpholino)phenyl)-1H-pyrazol-3-yl)cyclohexanecarboxamide] | 1.29 | 782 |
| N#CC1(NC(=O)[C@@H]2CCCC[C@H]2c2nn(-c3cccnc3)cc2-c2ccc(N3CCS(=O)(=O)CC3)cc2)CC1 [Example 164, (1R,2R)-N-(1-cyanocyclopropyl)-2-(4-(4-(1,1-dioxidothiomorpholino)phen-yl)-1-(pyridin-3-yl)-1H-pyrazol-3-yl)cyclohexanecarboxamide] | 0.48 | 697 |
